Experimental data as given in patent US8809352B2, “Sulfonamides as inhibitors of Bcl-2 family proteins for the treatments of cancer” (Novartis AG, priority 2009, dated 2014).

target: BCL2 (Homo sapiens, UniProt P10415); assay: Biacore SPR solution inhibition assay of BCL-2 binding to peptide derivatized sensor surfaces; conditions: SPR competition; 56 nM BCL2 pre-equilibrated with compound one hour; biotinylated BAK, BAD and NOXA peptide surfaces; 25° C.
Procedure, shortened: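 Solution-competition SPR at 25 °C in HEPES pH 7.4 buffer with 1.25 mM DTT and 3% DMSO: compounds (6-point threefold series, 16 μM to 0.004 nM) pre-equilibrated 1 h with 56 nM BCL2, then injected over captured biotinylated BAK, BAD and NOXA peptide surfaces. Binding levels relative to BCL2-only controls gave % inhibition.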

BCL2, sequence (P10415 whole entry): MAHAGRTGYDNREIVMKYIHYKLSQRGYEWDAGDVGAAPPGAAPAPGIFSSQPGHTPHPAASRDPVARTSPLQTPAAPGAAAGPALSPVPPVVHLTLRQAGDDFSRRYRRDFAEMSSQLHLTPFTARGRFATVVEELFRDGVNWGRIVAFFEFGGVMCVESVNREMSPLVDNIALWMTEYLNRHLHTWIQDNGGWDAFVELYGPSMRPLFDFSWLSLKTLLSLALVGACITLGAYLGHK

Row | IC50 [nM] | SMILES
1 | 405 | O=S(=O)(Nc1nnc2n1CCN(C1CCN(Cc3ccccc3-c3ccc(Cl)cc3)CC1)C2)c1ccc(N[C@H](CCN2CCOCC2)CSc2ccccc2)c(S(=O)(=O)C(F)(F)F)c1 [Example 94]
2 | 49 | CN(C)CC[C@H](CSc1ccccc1)Nc1ccc(S(=O)(=O)Nc2ncnc3c2CCN(C2CCN(Cc4ccccc4-c4cccc(Cl)c4)CC2)C3)cc1S(=O)(=O)C(F)(F)F [Example 97, N-{7-[1-(3′-Chloro-biphenyl-2-ylmethyl)-piperidin-4-yl]-5,6,7,8-tetrahydro-pyrido[3,4-d]pyrimidin-4-yl}-4-((R)-3-dimethylamino-1-phenylsulfanylmethyl-propylamino)-3-trifluoromethanesulfonyl-benzenesulfonamide]
3 | 37 | CN(C)CC[C@H](CSc1ccccc1)Nc1ccc(S(=O)(=O)Nc2ncnc3c2CCN(C2CCN(Cc4ccccc4-c4ccc(C(F)(F)F)cc4)CC2)C3)cc1S(=O)(=O)C(F)(F)F [Example 99, (R)-4-(4-(dimethylamino)-1-(phenylthio)butan-2-ylamino)-N-(7-(1-((4′-(trifluoromethyl)biphenyl-2-yl)-methyl)piperidin-4-yl)-5,6,7,8-tetrahydropyrido[3,4-d]pyrimidin-4-yl)-3-(trifluoromethylsulfonyl)benzenesulfonamide]

Second part, the compound before the results:

Row | SMILES | IC50 [nM]
4 | O=S(=O)(Nc1nnc2n1CCN(C1CCCN(Cc3ccccc3-c3ccc(Cl)cc3)CC1)C2)c1ccc(N[C@H](CCN2CCOCC2)CSc2ccccc2)c(S(=O)(=O)C(F)(F)F)c1 (stereo partly drawn) [Example 95, N-{7-[1-(4′-Chloro-biphenyl-2-ylmethyl)-azepan-4-yl]-5,6,7,8-tetrahydro-[1,2,4]triazolo[4,3-a]pyrazin-3-yl}-4-((R)-3-morpholin-4-yl-1-phenylsulfanylmethyl-propylamino)-3-trifluoromethanesulfonyl-benzenesulfonamide] | 1900
5 | CC1CC(N2CCn3c(nnc3NS(=O)(=O)c3ccc(N[C@H](CCN4CCOCC4)CSc4ccccc4)c(S(=O)(=O)C(F)(F)F)c3)C2)CCN1Cc1ccccc1-c1ccc(Cl)cc1 (stereo partly drawn) [Example 96, N-{7-[1-(4′-Chloro-biphenyl-2-ylmethyl)-2-methyl-piperidin-4-yl]-5,6,7,8-tetrahydro-[1,2,4]triazolo[4,3-a]pyrazin-3-yl}-4-((R)-3-morpholin-4-yl-1-phenylsulfanylmethyl-propylamino)-3-trifluoromethanesulfonyl-benzenesulfonamide] | 144
6 | CN(C)CC[C@H](CSc1ccccc1)Nc1ccc(S(=O)(=O)Nc2ncnc3c2CCN(C2CCN(Cc4ccccc4-c4ccccc4Cl)CC2)C3)cc1S(=O)(=O)C(F)(F)F [Example 98] | 36
